Experiments:
[1] = test system: human dermal fibroblasts (HDF); assay: IncuCyte live-cell imaging cell death, HDF; format: cell-based; details: 50 µM (Appendix Fig. S4E)
Protocol: Cells were seeded at varying densities (1000–8000 cells per well) after initial optimisation in a 96-well tissue culture-treated plate (Thermo Fisher Scientific). Cells were incubated o/n, and the next day, inhibitors and controls diluted in cell media were added to the cells to a final volume of 200 μL per well. Cell death was measured using PI (Sigma-Aldrich). Cells were imaged with four images per well every 2 h for up to 96 h using the IncuCyte live-cell analysis system (S3, Sartorius). Cell proliferation data were analysed using Microsoft Excel by normalising confluence to control conditions. For cell killing readouts, the number of PI-positive cells was normalised to the control conditions for each timepoint.

[2] = target: T1, USP9X catalytic domain (Homo sapiens, UniProt Q93008); assay: K48-linked di-ubiquitin cleavage assay; format: biochemical; details: reported USP9X inhibitors; Appendix Fig. S1B,E (diUb cleavage 150 µM, Ub-Rho)
T1 construct: His/SUMO (pOPIN-S vector) (N, cleaved yes); made in house; host or cells: E. coli BL21
T1 sequence (Q93008 1551-1970): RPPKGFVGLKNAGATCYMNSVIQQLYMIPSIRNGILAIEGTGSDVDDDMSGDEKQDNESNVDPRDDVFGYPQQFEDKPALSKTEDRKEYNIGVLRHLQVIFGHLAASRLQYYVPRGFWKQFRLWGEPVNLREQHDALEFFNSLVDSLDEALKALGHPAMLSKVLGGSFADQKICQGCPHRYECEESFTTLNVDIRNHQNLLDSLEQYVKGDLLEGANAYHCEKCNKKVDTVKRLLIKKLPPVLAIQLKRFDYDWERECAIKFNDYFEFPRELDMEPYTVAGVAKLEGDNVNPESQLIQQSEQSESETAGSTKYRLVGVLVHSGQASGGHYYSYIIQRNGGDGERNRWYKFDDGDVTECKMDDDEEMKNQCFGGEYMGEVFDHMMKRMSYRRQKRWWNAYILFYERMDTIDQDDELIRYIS
Protocol: For inhibitor activity assays, USP9X catalytic domain (di-ubiquitin cleavage assay: 750 nM, ubiquitin-probe assays: 2.5 µM) was pre-incubated with USP9X inhibitors for 30 min at ambient temperature and subsequently mixed with di-ubiquitin (final concentration 2 µM) in assay buffer (25 mM Tris [pH 8.0], 150 mM NaCl, 10 mM DTT) at pH 8.0 or was mixed with ubiquitin-propargylamide (Ub-PA)/ubiquitin-vinyl sulfonate (Ub-VS) probes at a final concentration of 10 µM in assay buffer. For both assays, the mixture was incubated over a time course, and the reaction was stopped by mixing samples with 2× LDS sample buffer (Invitrogen) supplemented with 3% (v/v) 2-mercaptoethanol. All protein samples were run on a 4–12% Bis-Tris SDS-PAGE gradient gel (Invitrogen) for 60 min at 140 V. The gel was stained with InstantBlue® (Abcam) and imaged.

[3] = target: T1, USP9X catalytic domain; assay: Ub-Rho cleavage assay; format: biochemical; details: Ub-Rho cleavage, recombinant USP9X catalytic domain (WT)
Protocol: The reaction was stopped through the addition of 10 mM citric acid. The assay was performed in 384-well format with a total reaction volume of 16 µL. Data was collected using the ClarioSTAR plate reader (BMG Labtech) at an emission of 535 nm. […] IC50 values presented in our study are the mean of three independent biological repeats unless indicated otherwise.

[4] = target: T1, USP9X catalytic domain; assay: SPR binding assay
Protocol: Next, the sample was desalted using PD midiTrap™ G-25 (GE Healthcare) columns following the manufacturer’s instructions and was further purified by SEC, concentrated, and stored at -80 °C. Enzyme activity was tested in a ubiquitin-probe assay. SPR experiments were performed on a Biacore 8 K+ instrument (Cytiva). USP9X catalytic domain with a C-terminal AviTag™ was immobilised in 10 mM HEPES, 150 mM NaCl at pH 7.4 on a Series S Sensor Chip SA (Cytiva) by coupling. […] Running buffer was supplemented with 2% (v/v) DMSO. Multi-cycle kinetics were performed with 120 s associations and 600 s dissociations at 30 µL/min with no further regeneration. Binding constants were determined in Biacore Insight evaluation software (v5.0.18) at steady state, taking the median response over a 5-s window beginning at 10 s before the end of the association phase. Final KD values are the mean of three independent experiments.

| Compound | toxicity to HDFs [1] | effects on the purified USP9X catalytic domain [2] | IC50 [3] [µM] | Kd ([4]; SPR, steady state, mean of three repeats, read-out: KD (steady state affinity)) [µM] | SPR kinetic fitting (on-rate/off-rate) ([4]; compared with the WEHI compound series / WEHI-092) |
| --- | --- | --- | --- | --- | --- |
| CCCC(NC(=O)/C(C#N)=C/c1nc(Cl)ccc1Cl)c1ccc(OCCN2CCOCC2)cc1 (centres unmarked) [EOAI3402143] | cytotoxic | no or weak effects | – | – | – |
| O=C(c1ccc2[nH]ccc2c1)N1CCN(S(=O)(=O)c2ccc3c(c2)OCCO3)CC1 [WEHI-680] | – | – | 4.3 | 3.51 ± 0.58 | much faster off-rate |
| O=S(=O)(c1ccc2c(c1)OCCO2)N1CCN(c2ccc(-c3ccccc3)nn2)CC1 [WEHI-871] | – | – | > 100 | – | – |
| CCC[C@H](NC(=O)/C(C#N)=C/c1cccc(Br)n1)c1ccccc1 [WP1130] | cytotoxic | no or weak effects | – | – | – |
